We go through one substance from patent US10948498B2, “Methods and kits for predicting the risk of having a cardiovascular disease or event” (INOTREM, priority 2013, dated 2021).

The subject of experiment [1] is infarcted mice. In words: Mouse model of myocardial infarction: plasma sTREM-1 after peptide treatment. The format is in vivo. The settings on record: for sTREM-1 levels: daily i.p. injection for 5 days, vs LR12-scrambled (FIG. 4A). The protocol:
(A) Adult male Balb/c mice (20-23 g) were subjected to myocardial ischemia and were randomly grouped (n=10 per group) to receive repeated LR12 (100 μg in 0.2 mL NaCl 0.9% once a day for 5 days) or scrambled-LR12 (100 μg in 0.2 mL NaCl 0.9% once a day for 5 days), i.p. injections. Blood samples was obtained at 24, 72 and 168 hours after cardiac ischemic event to measure plasma sTREM-1 levels. Physiologic baseline is calculated from dosage in healthy animals. N=10 per group and per timepoint.
(§1) Mice serum levels of sTREM-1 were determined by ELISA (Mouse TREM-1 Quantikine ELISA Kit, RnDsystems) using a detection limit at 31.3 pg/mL.
All procedures were performed on mice male C57BL/C ranging in age from 6-8 weeks. Mice were anesthetized by an intraperitoneal injection of xylazine (60 mg/kg) and fixed in supine position. The trachea was intubated and ventilated (the tidal volume was 200 μl/25 g and the respiratory rate was 120 breaths/min). After a left thoracotomy, the left coronary artery was identified and ligated with an 8-0 prolene surgical suture at 1.0 mm distal from tip of the left auricle. LAD occlusion was confirmed by a change in myocardial color from red to white in the ischemia area (Left ventricle). The chest was closed and the skin was sutured with 6-0 silk. The animals returned to their cage where they are supervised until their complete recovery.
Mice were randomized to receive or not peptides (daily ip injection for 5 days, 5 mg/kg) and were sacrificed after 24 h, 72 h, 168 h (n=6 per group) by anesthesia followed with pentobarbital sodium overdose for blood sampling.
We also show in infarcted mice that sTREM-1 levels were decreased by LR12 treatment 24 and 72 hours after an ischemic event (FIG. 4A).

The test system of experiment [2] is Atherosclerotic mice (24 weeks old ApoE−/− mice under fat diet). Put plainly: Atherosclerosis in mouse: plasma sTREM-1 after peptide treatment. The format is in vivo. The protocol: (B) Atherosclerotic mice were randomized to receive LR12 (100 μg in 0.2 mL NaCl 0.9% once a day for 4 weeks) or scrambled-LR12 (100 μg in 0.2 mL NaCl 0.9% once a day for 4 weeks), i.p. injections. Blood samples were obtained at the end of the treatment (4 weeks) to assess sTREM-1 plasma concentrations. Physiologic baseline is calculated from dosage in healthy animals. N=10 per group.
as §1
12 and 24-weeks old male ApoE−/− mice were put on a fat (lipids 15%, cholesterol 1.25%, no cholate) or chow diet and were treated by daily intraperitoneal injection of peptides (100 μg/day). After 4 weeks of treatment, mice were sacrificed for blood sampling.
Our second objective was to assess whether a treatment could impact plasma levels of sTREM-1. Atherosclerotic mice (24 weeks old ApoE−/− mice under fat diet) were treated by LR12 peptide, which targets TREM-1 ligand, or a control peptide LR12-scrambled.

On to “LR12: 12 amino-acids peptide (LQEEDTGEYGCV, SEQ ID NO: 4) known to specifically target TREM-1 ligand (LR12)”, for which the sTREM-1 levels entry in experiment [1] (24 hours after ischemic event) and in experiment [1] (72 hours after ischemic event) was “decreased” throughout. Moreover, the “outcome after a cardiac ischemic event” value in experiment [1] (data not shown) is listed as “better outcome”. The same substance had a sTREM-1 plasma concentration in experiment [2] (24 weeks old ApoE−/− mice under fat diet, 100 μg/day i.p., after 4 weeks of treatment, ELISA) of 189.8 pg/mL. Also, in experiment [2] (data not shown), the outcome during atherosclerosis is given as “better outcome”.
